These are literature values, as cited in US10487314B2, “Inhibition of serotonin expression in gut enteroendocrine cells results in conversion to insulin-positive cells” (priority 2014, dated 2019).

For one data set, the target named is 5-HT2B (Homo sapiens, UniProt P41595).
Another data set has as its system ALDH1A3 mRNA. Particulars: human prostate.

The structures appear in SMILES notation.

Chain of 5-HT2B (P41595 whole entry, species assumed): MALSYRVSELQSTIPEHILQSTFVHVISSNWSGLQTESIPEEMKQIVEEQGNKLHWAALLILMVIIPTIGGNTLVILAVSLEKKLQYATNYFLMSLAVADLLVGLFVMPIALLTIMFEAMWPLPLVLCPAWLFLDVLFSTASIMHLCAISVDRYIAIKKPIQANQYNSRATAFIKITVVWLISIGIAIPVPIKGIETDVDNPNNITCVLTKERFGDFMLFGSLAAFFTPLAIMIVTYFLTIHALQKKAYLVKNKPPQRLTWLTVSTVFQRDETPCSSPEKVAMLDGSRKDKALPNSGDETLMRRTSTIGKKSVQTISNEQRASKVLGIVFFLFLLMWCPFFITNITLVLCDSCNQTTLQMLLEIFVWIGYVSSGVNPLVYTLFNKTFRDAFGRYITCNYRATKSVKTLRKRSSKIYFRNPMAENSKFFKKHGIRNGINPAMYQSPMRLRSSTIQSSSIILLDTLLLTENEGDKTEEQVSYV

`CC(C)c1cc(-c2ccc(F)c3ccccc23)nc(N)n1` [RS-127,445]: the oral bioavailability result is “orally bioavailable”. Besides, the “affinity for 5-HT2B” value at 5-HT2B is recorded as “high affinity”. Also, the subtype selectivity on 5-HT2B (5-HT2B versus other subtypes) is on record as 1000 ×. Turning to `Cc1cc([N+](=O)[O-])c(N2CCN(Cc3ccccc3)CC2)cc1N` [EGIS-7625], on 5-HT2B, the “selectivity over 5-HT2A” value is on record as “high selectivity”. Turning to `C[C@]12CCC(=O)C[C@@H]1CC[C@@H]1[C@@H]2CC[C@]2(C)[C@@H](O)CC[C@@H]12` [Androgen dihydrotestosterone (DHT), dihydrotestosterone], the “increase in ALDH1A3 mRNA levels” value in the data set on ALDH1A3 mRNA is 4 fold.
